From the NIST ThermoML archive (doi:10.1016/j.fluid.2004.11.019)

Test: xn = mol fraction of the nth substance listed
Settings: Liquid

CCO [ethanol] + O
Settings | mass density [kg/m3]
323.15 K, 40000 kPa, x1 = 0.0801 | 971.4
323.15 K, 40000 kPa, x1 = 0.084 | 970.9
323.15 K, 40000 kPa, x1 = 0.0879 | 969.2
323.15 K, 40000 kPa, x1 = 0.0926 | 967.6
323.15 K, 40000 kPa, x1 = 0.0958 | 966.5
323.15 K, 40000 kPa, x1 = 0.1006 | 964.9
323.15 K, 40000 kPa, x1 = 0.1111 | 961.3
323.15 K, 40000 kPa, x1 = 0.1225 | 957.4
323.15 K, 40000 kPa, x1 = 0.1296 | 955.2
323.15 K, 40000 kPa, x1 = 0.1402 | 951.7
323.15 K, 40000 kPa, x1 = 0.151 | 948.2
323.15 K, 40000 kPa, x1 = 0.1601 | 945.3
323.15 K, 40000 kPa, x1 = 0.1703 | 942
323.15 K, 40000 kPa, x1 = 0.18 | 938.9
323.15 K, 40000 kPa, x1 = 0.1903 | 935.8
323.15 K, 40000 kPa, x1 = 0.1996 | 932.9
323.15 K, 40000 kPa, x1 = 0.2269 | 924.7
323.15 K, 40000 kPa, x1 = 0.2502 | 918.2
323.15 K, 40000 kPa, x1 = 0.2745 | 911.5
323.15 K, 40000 kPa, x1 = 0.3009 | 904.8
323.15 K, 40000 kPa, x1 = 0.35 | 892.7
323.15 K, 40000 kPa, x1 = 0.4034 | 881
323.15 K, 40000 kPa, x1 = 0.4501 | 871.3
323.15 K, 40000 kPa, x1 = 0.498 | 862.6
323.15 K, 40000 kPa, x1 = 0.5501 | 853.6
323.15 K, 40000 kPa, x1 = 0.5998 | 845.8
323.15 K, 40000 kPa, x1 = 0.6489 | 838.5
323.15 K, 40000 kPa, x1 = 0.6967 | 831.9
323.15 K, 40000 kPa, x1 = 0.7475 | 825.5
323.15 K, 40000 kPa, x1 = 0.7996 | 819.1
323.15 K, 40000 kPa, x1 = 0.8484 | 813.6
323.15 K, 40000 kPa, x1 = 0.8993 | 808
323.15 K, 40000 kPa, x1 = 0.9503 | 802.8
323.15 K, 40000 kPa, x1 = 1 | 797.7
348.15 K, 100 kPa, x1 = 0.003 | 973.1
348.15 K, 100 kPa, x1 = 0.0042 | 971.9
348.15 K, 100 kPa, x1 = 0.0082 | 970.7
348.15 K, 100 kPa, x1 = 0.0119 | 969.1
348.15 K, 100 kPa, x1 = 0.0158 | 966.6
348.15 K, 100 kPa, x1 = 0.0184 | 965.4
348.15 K, 100 kPa, x1 = 0.0219 | 963.9
348.15 K, 100 kPa, x1 = 0.0255 | 962
348.15 K, 100 kPa, x1 = 0.0279 | 960.4
348.15 K, 100 kPa, x1 = 0.0315 | 959.4
348.15 K, 100 kPa, x1 = 0.0366 | 956.7
348.15 K, 100 kPa, x1 = 0.0392 | 955.3
348.15 K, 100 kPa, x1 = 0.0439 | 953.5
348.15 K, 100 kPa, x1 = 0.0483 | 951.2
348.15 K, 100 kPa, x1 = 0.0516 | 950.2
348.15 K, 100 kPa, x1 = 0.0559 | 948.8
348.15 K, 100 kPa, x1 = 0.06 | 946.9
348.15 K, 100 kPa, x1 = 0.0652 | 944.8
348.15 K, 100 kPa, x1 = 0.0679 | 943.7
348.15 K, 100 kPa, x1 = 0.0722 | 941.5
348.15 K, 100 kPa, x1 = 0.0801 | 938.1
348.15 K, 100 kPa, x1 = 0.084 | 937.5
348.15 K, 100 kPa, x1 = 0.0879 | 935.3
348.15 K, 100 kPa, x1 = 0.0926 | 933.6
348.15 K, 100 kPa, x1 = 0.0958 | 932.2
348.15 K, 100 kPa, x1 = 0.1006 | 930.2
348.15 K, 100 kPa, x1 = 0.1111 | 925.9
348.15 K, 100 kPa, x1 = 0.1225 | 921.5
348.15 K, 100 kPa, x1 = 0.1296 | 918.7
348.15 K, 100 kPa, x1 = 0.1402 | 914.6
348.15 K, 100 kPa, x1 = 0.151 | 910.4
348.15 K, 100 kPa, x1 = 0.1601 | 906.9
348.15 K, 100 kPa, x1 = 0.1703 | 903.1
348.15 K, 100 kPa, x1 = 0.18 | 899.5
348.15 K, 100 kPa, x1 = 0.1903 | 895.8
348.15 K, 100 kPa, x1 = 0.1996 | 892.6
348.15 K, 100 kPa, x1 = 0.2269 | 883.1
348.15 K, 100 kPa, x1 = 0.2502 | 875.6
348.15 K, 100 kPa, x1 = 0.2745 | 868
348.15 K, 100 kPa, x1 = 0.3009 | 860.4
348.15 K, 100 kPa, x1 = 0.35 | 846.7
348.15 K, 100 kPa, x1 = 0.4034 | 833.4
348.15 K, 100 kPa, x1 = 0.4501 | 822.7
348.15 K, 100 kPa, x1 = 0.498 | 812.7
348.15 K, 100 kPa, x1 = 0.5501 | 802.6
348.15 K, 100 kPa, x1 = 0.5998 | 793.8
348.15 K, 100 kPa, x1 = 0.6489 | 785.6
348.15 K, 100 kPa, x1 = 0.6967 | 778.2
348.15 K, 100 kPa, x1 = 0.7475 | 770.9
348.15 K, 100 kPa, x1 = 0.7996 | 763.9
348.15 K, 100 kPa, x1 = 0.8484 | 757.6
348.15 K, 100 kPa, x1 = 0.8993 | 751.5
348.15 K, 100 kPa, x1 = 0.9503 | 745.7
348.15 K, 100 kPa, x1 = 1 | 739.4
348.15 K, 10000 kPa, x1 = 0.003 | 977.5
348.15 K, 10000 kPa, x1 = 0.0042 | 976.3
348.15 K, 10000 kPa, x1 = 0.0082 | 975
348.15 K, 10000 kPa, x1 = 0.0119 | 973.4
348.15 K, 10000 kPa, x1 = 0.0158 | 971
348.15 K, 10000 kPa, x1 = 0.0184 | 969.6
348.15 K, 10000 kPa, x1 = 0.0219 | 968.2
348.15 K, 10000 kPa, x1 = 0.0255 | 966.4
348.15 K, 10000 kPa, x1 = 0.0279 | 964.8
348.15 K, 10000 kPa, x1 = 0.0315 | 963.8
348.15 K, 10000 kPa, x1 = 0.0366 | 961
348.15 K, 10000 kPa, x1 = 0.0392 | 959.6
348.15 K, 10000 kPa, x1 = 0.0439 | 957.8
